Patent US11285218B2, “Degradation of bromodomain-containing protein 9 (BRD9) by conjugation of BRD9 inhibitors with E3 ligase ligand and methods of use” (Dana-Farber Cancer Institute, Inc., priority 2016, dated 2022)
“Also recorded” adds a separate entry of the source.

How the values were obtained:
BRD9 [1] = molecular target: T1, BRD9 (Homo sapiens, UniProt Q9H8M2); experiment: BRD9 immunoblot in MM1S CRBN knockout cells; settings: MM.1S CRBN knockout cell line, 4 hour treatment, indicated doses
T1 sequence (Q9H8M2 1-597): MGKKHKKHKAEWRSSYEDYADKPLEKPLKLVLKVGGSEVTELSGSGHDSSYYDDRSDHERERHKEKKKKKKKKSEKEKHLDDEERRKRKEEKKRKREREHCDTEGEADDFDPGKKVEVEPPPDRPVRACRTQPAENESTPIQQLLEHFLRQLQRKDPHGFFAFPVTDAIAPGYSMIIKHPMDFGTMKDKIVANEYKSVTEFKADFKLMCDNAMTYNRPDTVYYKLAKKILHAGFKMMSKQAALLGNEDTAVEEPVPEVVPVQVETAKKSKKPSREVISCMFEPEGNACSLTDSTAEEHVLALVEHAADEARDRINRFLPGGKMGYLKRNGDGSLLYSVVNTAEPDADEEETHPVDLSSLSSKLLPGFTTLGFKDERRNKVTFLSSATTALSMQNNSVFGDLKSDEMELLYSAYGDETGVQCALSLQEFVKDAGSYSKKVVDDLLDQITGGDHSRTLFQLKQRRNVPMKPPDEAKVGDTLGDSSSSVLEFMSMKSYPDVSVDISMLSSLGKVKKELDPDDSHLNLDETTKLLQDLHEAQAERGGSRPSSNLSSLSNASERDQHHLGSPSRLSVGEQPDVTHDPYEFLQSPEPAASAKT
Description: (§2) In additional experiments, cells were washed with PBS, before being lysed in RIPA buffer supplemented with 1×HALT™ protease inhibitor cocktail (Thermo Scientific) for 10 min on ice, followed by low-amplitude sonication for 10 seconds at 4° C. […] In soluble material was removed by centrifugation at 20,000×g for 20 min before protein content was quantified by BCA assay (Pierce). […] Blots were imaged using fluorescence-labeled secondary antibodies (LI-COR) on the OdysseyCLxImager (LI-COR).

BRD4(1) [2] = molecular target: T2, BRD4(1) (Homo sapiens, UniProt O60885); experiment: BromoScan single-point screen; type: binding; parameters: utilizing DNA-tagged bromodomain and immobilized ligand attached to solid support; settings: percent of protein captured on solid support vs control
Excerpt: (§1) The BromoScan is an assay that measures the engagement of compounds with bromodomain proteins by utilizing DNA-tagged bromodomain and immobilized ligand attached to solid support. In the control test, DNA-tagged bromodomain binds to the ligand and the bromodomain is captured on the solid support. Compounds that compete for the bromodomain binding location on the ligand will prevent the bromodomain from binding, resulting in less protein captured on the solid support.

BRD9 [3] = molecular target: T3, BRD9 (Homo sapiens, UniProt Q9H8M2); experiment: BRD9-ligand displacement AlphaScreen; type: binding
T3 construct: A construct of human BRD9 covering residues 134-0245 in the pET28PP vector; made in house; host or cells: E. coli BL21 (DE3)
T3 sequence (Q9H8M2 134-245 limits assumed): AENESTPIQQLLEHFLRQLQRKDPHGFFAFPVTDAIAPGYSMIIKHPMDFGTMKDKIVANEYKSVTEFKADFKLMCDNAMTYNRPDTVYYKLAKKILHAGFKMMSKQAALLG
Description: BRD9 assays were performed with minimal modifications from the manufacturer's protocol (PerkinElmer, USA). All reagents were diluted in 50 mM HEPES, 150 mM NaCl, 0.1% w/v BSA, 0.01% w/v Tween20, pH 7.5. […] Plates were spun down at 150×g, and 100 nL of DMSO compound stock was added from pre-diluted plates by pin transfer using a Janus Workstation (PerkinElmer, USA). Under low light, a 2× suspension of Ni-coated Acceptor Beads and Streptavidin Donor Beads, was then added at 10 ul/well to a final concentration of 5 μg/ml by EL406 automated liquid handler (Biotek, USA).

BAZ^2B = molecular target: T4, BAZ^2B (Homo sapiens, UniProt Q9UIF8); experiment: BromoScan single-point screen; type: binding; settings: percent of protein captured on solid support vs control
T4 construct: utilizing DNA-tagged bromodomain and immobilized ligand attached to solid support
T4 sequence (Q9UIF8 2060-2164 limits assumed): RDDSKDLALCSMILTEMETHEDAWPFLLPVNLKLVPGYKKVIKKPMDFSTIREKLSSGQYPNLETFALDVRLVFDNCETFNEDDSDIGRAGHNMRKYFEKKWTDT
Excerpt: as §1

CECR2 = molecular target: T5, CECR2 (Homo sapiens, UniProt Q9BXF3); experiment: BromoScan single-point screen; type: binding; settings: percent of protein captured on solid support vs control
T5 construct: utilizing DNA-tagged bromodomain and immobilized ligand attached to solid support
T5 sequence (Q9BXF3 434-538 limits assumed): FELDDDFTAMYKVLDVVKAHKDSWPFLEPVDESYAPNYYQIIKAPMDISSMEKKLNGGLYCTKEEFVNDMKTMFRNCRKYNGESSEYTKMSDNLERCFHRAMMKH
Excerpt: as §1

BRD4 = BRD4 (Homo sapiens, UniProt O60885); experiment: BRD4 immunoblot in MOLM-13; settings: MOLM-13, 4 hour treatment
Description: In additional experiments, cells were washed with PBS, before being lysed in RIPA buffer supplemented with 1×HALT™ protease inhibitor cocktail (Thermo Scientific) for 10 min on ice, followed by low-amplitude sonication for 10 seconds at 4° C. (Q125, QSonica, USA). In soluble material was removed by centrifugation at 20,000×g for 20 min before protein content was quantified by BCA assay (Pierce). […] Blots were imaged using fluorescence-labeled secondary antibodies (LI-COR) on the OdysseyCLxImager (LI-COR).

MOLM-13 cell line = experiment: ATPlite viability assay, MOLM-13; settings: MOLM-13, 72 hours; in words
Description: (§3) 500 cells/well were plated at a volume of 40 μL/well in white tissue culture treated 384 well assay plates (Thermo Scientific) before DMSO compound stock was added from pre-diluted plates by pin transfer using a Janus Workstation (PerkinElmer, USA). […] Assay plates were allowed to equilibrate to RT for 30 min before reconstituted ATPlite 1 Step reagent (Perkin Elmer) was dispensed at 1:1 volume/well by EL406 automated liquid handler (Biotek, USA).

MV411 cell line = experiment: ATPlite viability assay, MV4;11; settings: MV4;11, 72 hours; in words
Description: as §3

BRD9 [4] = molecular target: T1, BRD9; experiment: BRD9 degradation / cellular activity (Western blot, cell line not stated); settings: cell line not given
BRD4(1) [5] = molecular target: T2, BRD4(1); experiment: BRD4(1) ligand-displacement AlphaScreen; type: binding; parameters: substituting protein and biotin-probe components for BRD4(1) protein at 20 nM final; His tag (inferred from Ni-coated acceptor beads)
CRBN-DDB1 = molecular target: T6, CRBN-DDB1 (Homo sapiens, UniProt Q96SW2); experiment: CRBN-DDB1 ligand-displacement AlphaScreen; type: binding; settings: purified CRBN-DDB1 ligand displacement
T6 construct: made in house; host or cells: Sf9 cells (Invitrogen)
Description: Following a 30 min incubation, 20 uL detection solution containing Streptavidin Donor Beads and Nickel Chelate AlphaLISA® Acceptor Beads diluted to 20 ng/uL in assay buffer was added to each well.

[6] = molecular target: BRD4:CRBN-DDB1 protein complex (Homo sapiens, UniProt O60885+Q96SW2); experiment: CRBN-DDB1/BRD4 dimerization assay (luminescence); settings: in words
Description: (§4) To detect CRBN-DDBI/BRD4 dimerization, we adapted bead-based AlphaScreen technology. […] Compounds were then pinned at 100 nL per well from DMSO stock. After 1 incubation at room temperature. Nickel Chelate AlphaLISA Acceptor and Glutathione AlphaLISA Donor beads (PerkinElmer) were diluted in assay buffer to 20 μg/mL and added at 20 μl per well.

[7] = test system: 32 members of the human bromodomain family; experiment: BromoScan single-point screen, panel profile; type: binding; settings: single-point 1 μM, 32 bromodomains; in words
Excerpt: as §1

BRD9 [8] = molecular target: T1, BRD9; experiment: BRD9 immunoblot in MOLM-13
Description: as §2

[9] = molecular target: BRD9:CRBN-DDB1 protein complex (Homo sapiens, UniProt Q96SW2+Q9H8M2); experiment: BRD9:CRBN-DDB1 dimerization assay (luminescence); settings: for formation of the BRD9:CRBN-DDB1 protein complex: in words
Description: To measure this activity, a homogenous luminescence assay was developed to report on compound-induced proximity of BRD9 and CRBN.
as §4

BRD9 [10] = molecular target: T1, BRD9; experiment: BRD9 immunoblot in MM1S cells
Description: as §2

TRIM33 (PHD, Bromo.) = experiment: BromoScan single-point screen; type: binding, human; settings: percent of protein captured on solid support vs control
Excerpt: as §1

[11] = luminescence detection of dimerization assay
[12] = MMIS cells, 4 hours pretreatment, then 100 nM

- BRD9 degradation (immunoblot) (BRD9 [1]): little to no BRD9 degradation
- % Ctrl @ 1 μM (BRD4(1) [2]): 1.8 % Ctrl
- IC50 (BRD9 [3]): 12.3 nM
- % Ctrl @ 1 μM (BAZ^2B): 74 % Ctrl
- % Ctrl @ 1 μM (CECR2): 0.15 % Ctrl
- BRD9 degradation / cellular potency, in words (BRD9 [4]): superior
- IC50 (BRD4(1) [5]): 1710 nM
- IC50 (CRBN-DDB1): 11.2 nM
- time to near complete BRD9 loss (BRD9 [8]; MOLM-13, 100 nM): ≤ 1 h
- return of BRD9 during treatment (BRD9 [8]; MOLM-13, 100 nM, 24-hour treatment period): no detectable return
- BRD9:CRB9-DDB1 AUC [9, 11]: 80620
- BRD9:CRB9-DDB1 Cmax [9, 11]: 26.2 nM
- BRD9 degradation after pretreatment with excess I-BRD9 (BRD9 [10]; [12]): prevented degradation
- BRD9 degradation after pretreatment with excess lenalidomide (BRD9 [10]; [12]): prevented degradation
- BRD9 degradation with co-treatment with carfilzomib (BRD9 [10]; [12]): Degradation was abolished
- BRD9 levels after pretreatment with neddylation inhibitor (MLN-4924) (BRD9 [10]; [12]): rescued BRD9 levels
- BRD9 loss (immunoblot) (BRD9 [10]; wild type MM.1S cells, 4 hour treatment, indicated doses): marked dose-dependent BRD9 loss
Structure (SMILES): COc1cc(-c2cn(C)c(=O)c3cc(C(=N)NC4CCS(=O)(=O)CC4)sc23)ccc1OCC(=O)NCCCCCCCCNc1cccc2c1CN(C1CCC(=O)NC1=O)C2=O (centres unmarked) [Compound I-17]
- BRD4 degradation (immunoblot) (BRD4): Off target degradation of BRD4, observed at high concentrations
- half-maximal anti-proliferative concentration (MOLM-13 cell line): low nanomolar
- maximal efficacy on cell proliferation (MOLM-13 cell line): significantly exceeded that of the more selective I-25
- half-maximal anti-proliferative concentration (MV411 cell line): low nanomolar
- maximal efficacy on cell proliferation (MV411 cell line): significantly exceeded that of the more selective I-25
- formation of the BRD4:CRBN-DDB1 protein complex [6]: effectively induce biochemical association
- bromodomain interaction profile [7]: also BRD7 and members of the BET family
- BRD9 protein level (immunoblot) (BRD9 [8]; MOLM-13, 4 hour treatment, indicated concentrations, in words): effectively downregulate BRD9 over a broad range of concentrations; also recorded: effectively downregulating BRD9 protein over a broad range of concentrations
- BRD9:CRBN-DDB1 dimerization, comparison in words [9]: superior; also recorded: effectively induce biochemical association
- formation of the BRD9:CRBN-DDB1 protein complex ([9]; relative to unmodified pomalidomide): significantly induce formation of the complex
- formation of the BRD9:CRBN-DDB1 protein complex ([9]; relative to unmodified thalidomide): significantly induce formation of the complex
- % Ctrl @ 1 μM (TRIM33 (PHD, Bromo.)): 100 % Ctrl
